Experimental data taken from patent publication US20120101169A1, “METHODS OF PROVIDING ANTICOAGULATION EFFECTS IN SUBJECTS” (Penwest Pharmaceuticals Co., priority 2010, published 2012).
Read-outs that look alike come from different tables or passages of the source. Marks after values point to notes of the source that are not given here.

How the values were obtained:
[1] = Food-effect and regimen pharmacokinetics, single 3-g daily ATQ dose (Example 5 Part 1); assay type: in vivo, human; settings: for Cmax / AUC(0-inf) / Vd/F / half-life / Tmax: male, human, plasma, oral, 3 g; for Vd/F: read-out: Vz/F
Experimental: (§1) The study was conducted in 2 parts. Part 1 was conducted in healthy male subjects only while Part 2 was conducted in healthy male and female subjects. The intent of this study part was to optimize the dosage regimen and diet for the multiple-dose safety and tolerance Part 2 of the study. All plasma ATQ concentrations were determined using a GLP validated bioanalytical method. ATQ was administered as an oral solution in oil (0.49 g/mL). The placebo solution consisted of olive oil alone.
The dose of 3-g ATQ was selected for Part 1 as it most likely represented the high end of the exposure spectrum selected for the subsequent tolerance trial. For Part 1, serial blood samples for the measurement of the plasma levels of ATQ were collected prior to and following each oral dose administered on Day 1 through 36 hours following the morning dose on Day 1 (or 24 hours post-evening dose).

antithrombin (AT) = test: Extended coagulation biomarker panel: antithrombin; parameters: species or system human; settings: in vivo
Source text: (§2) In Part 1 the extended panel was collected at screening and at check-in (Day −1) and Day 2 of each period unless the study results warranted a different sampling schedule. In Part 2, the same of the exploratory coagulation biomarkers were collected at screening, check-in, Day 4, and Day 8 in Cohorts 1 and 2, or at check-in, Day 7, and Day 14 in Cohorts 3 and 4 with the following exception: in Cohorts 3 and 4, platelet function was collected at check-in only or when medically indicated.

factor V = test: Extended coagulation biomarker panel: factor V; parameters: species or system human; settings: in vivo
Source text: as §2

protein C = test: Extended coagulation biomarker panel: protein C; assay type: in vivo, human; settings: Part 2, 0.67 g TID, Day 4
Source text: as §2

[2] = Safety and tolerability of (R,R,R) α-tocopherol quinone in healthy male and female subjects (Example 1); settings: high and moderate fat meal
Experimental: The safety and tolerability of (R,R,R) α-tocopherol quinone was tested in healthy male and female subjects. Twelve subjects were divided into two groups of six subjects each (Groups A and B). Group A was administered 1.5 g of a (R,R,R) α-tocopherol quinone twice a day for one day. Group B was administered 1.0 g of (R,R,R) α-tocopherol quinone three times a day for 1 day. Both groups of subjects were fed under high and moderate fat meal content.

[3] = Multiple ascending dose pharmacokinetics of ATQ (Example 5 Part 2); assay type: in vivo, human; settings: for Cmax / AUC: both sexes, human, plasma, oral; for AUC: read-out: AUC(0-tau, 24)
Experimental: as §1
Part 2 was conducted as a multiple-dose dose-escalation design. […] Dose administration was subsequently switched to a BID regimen administered for 14 days.
Part 2 was conducted as a multiple-dose dose-escalation design in male and female subjects. None of the subjects who participated in Part 1 of the study were eligible to participate in Part 2. A total of 32 subjects were enrolled in Part 2. Twenty (20) subjects received ATQ or placebo for one week in a single-blind, randomized, placebo-controlled design: Cohort 1 […] low dose (1 g/day as 0.33 g TID) and Cohort 2 […] midrange dose (2 g/day as 0.67 g TID). In each cohort, 8 subjects received ATQ and 2 subjects received placebo under fed conditions. An additional 12 subjects were subsequently enrolled into 2 additional cohorts of 6 subjects each. The 12 subjects were randomized to receive one of the two following ATQ doses: Cohort 3 (N=6) low dose (0.5 g BID) and Cohort 4 (N=6) intermediate dose (0.75 g BID) administered for 14 days with a standard meal. All subjects participating in Cohorts 3 and 4 received ATQ; there was no placebo arm.
For Part 2, serial blood samples for the measurement of the plasma levels of ATQ were collected in Cohorts 1 and 2 as part of a 3 times daily regimen prior to and over the first 6-hour dosing interval following administration of the first dose on Day 1, prior to the morning dose on Days 3, 5, and 6, over the 6-hour and 12-hour dosing intervals following the afternoon and evening dose, respectively, and up to 48 hours after the final (morning) dose on Day 7.
In Cohorts 3 and 4, serial blood samples for the measurement of the plasma levels of ATQ were collected for the twice-daily regimen prior to and over the 12-hour dosing interval following the first dose administration on Day 1, prior to the morning dose on Days 4, 7, 10, 13, and 14, and over the 12-hour dosing interval after the final (morning) dose on Day 14. Multiple-dose PK data over the dose range of 1.0-g/day (BID and TID), 1.5-g/day (BID), and 2.0-g/day (TID) were generated in this study.
Part 2 multiple-dose results are provided for Day 7 (Cohorts 1 and 2) or Day 14 unless otherwise indicated. Parameters designated with the term 24 refer to pharmacokinetic parameters derived for a 24-hour TID or BID dosing period.

[4] = 3-g BID, high-fat meal, mean, N = 6
[5] = 3-g BID, standard meal, mean, N = 6
[6] = 3-g TID, high-fat meal, mean, N = 5
[7] = 3-g TID, standard meal, mean, N = 6
[8] = 1-g/day (0.33 g TID), mean, N = 8
[9] = 1-g/day (0.5 g BID), morning dose data, N = 5
[10] = 1.5-g/day (0.75 g BID), morning dose data, N = 6
[11] = 2-g/day (0.67 g TID), mean, N = 7

Structure (SMILES): CC1=C(C)C(=O)C(CC[C@](C)(O)CCC[C@H](C)CCC[C@H](C)CCCC(C)C)=C(C)C1=O [ATQ, alpha-tocopherolquinone]
- CLpo [1, 4]: 21.4 L/h
- CLpo [1, 5]: 22.0 L/h
- CLpo [1, 6]: 18.2 L/h
- CLpo [1, 7]: 18.1 L/h
- Overall exposure (AUC) BID versus TID ([1]; 3-g dose as 2×1.5-g every 12 hours or 3×1.0-g every 6 hours): similar
- Cmax ([1]; 3-g BID (2×1.5 g 12 h apart), high-fat meal, baseline-adjusted, mean, N = 6, read-out: Cmax): 13400 ng/mL
- Cmax ([1]; 3-g BID (2×1.5 g 12 h apart), standard meal, baseline-adjusted, mean, N = 6, read-out: Cmax): 15300 ng/mL
- AUC(0-inf) ([1]; 3-g BID, high-fat meal, baseline-adjusted, mean, N = 6): 152 µg·h/mL
- Vd/F [1, 4]: 132 L
- half-life ([1]; 3-g BID, high-fat meal, mean, N = 6, read-out: t1/2 (converted)): 4.2 h
- Tmax ([1]; 3-g BID, high-fat meal, median, N = 6, read-out: Tmax): 10.5 h
- AUC(0-inf) ([1]; 3-g BID, standard meal, baseline-adjusted, mean, N = 6): 157 µg·h/mL
- Vd/F [1, 5]: 143 L
- half-life ([1]; 3-g BID, standard meal, mean, N = 6, read-out: t1/2 (converted)): 4.34 h
- Tmax ([1]; 3-g BID, standard meal, median, N = 6, read-out: Tmax): 6 h
- Cmax ([1]; 3-g TID (3×1.0 g 6 h apart), high-fat meal, baseline-adjusted, mean, N = 5, read-out: Cmax): 14200 ng/mL
- Cmax ([1]; 3-g TID (3×1.0 g 6 h apart), standard meal, baseline-adjusted, mean, N = 6, read-out: Cmax): 15000 ng/mL
- AUC(0-inf) ([1]; 3-g TID, high-fat meal, baseline-adjusted, mean, N = 5): 178 µg·h/mL
- Vd/F [1, 6]: 122 L
- half-life ([1]; 3-g TID, high-fat meal, mean, N = 5, read-out: t1/2 (converted)): 4.88 h
- Tmax ([1]; 3-g TID, high-fat meal, median, N = 5, read-out: Tmax): 17.5 h
- AUC(0-inf) ([1]; 3-g TID, standard meal, baseline-adjusted, mean, N = 6): 169 µg·h/mL
- Vd/F [1, 7]: 139 L
- half-life ([1]; 3-g TID, standard meal, mean, N = 6, read-out: t1/2 (converted)): 5.37 h
- Tmax ([1]; 3-g TID, standard meal, median, N = 6, read-out: Tmax): 12.7 h
- Cmax ([1]; single 3-g daily dose, across treatments, read-out: mean Cmax range): 13400 to 15300 ng/mL
- half-life ([1]; single 3-g daily dose, across treatments, read-out: mean t1/2 values (range across treatments)): 4.2 to 5.37 h
- Tmax ([1]; single 3-g daily dose, across treatments, read-out: median Tmax (range across treatments)): 6 to 17.5 h
- ATQ exposure (Cmax and AUC) high-fat versus standard meal ([1]; single 3-g daily dose): no difference
- Effect on the activity of AT (antithrombin (AT)): did not appear to affect
- Effect on the activity of factor V (factor V): did not appear to affect
- Protein C activity (protein C): 109%
- Safety and tolerability (side effects) ([2]; Group A: 1.5 g twice a day for one day): no side effects were observed
- Safety and tolerability (side effects) ([2]; Group B: 1.0 g three times a day for 1 day): no side effects were observed
- Time for trough concentrations to reach steady state ([3]; 0.33 g TID): ≤ 3 days
- Time for trough concentrations to reach steady state ([3]; 0.5 g BID): ≤ 4 days
- Time for trough concentrations to reach steady state ([3]; 0.67 g TID): ≤ 3 days
- Time for trough concentrations to reach steady state ([3]; 0.75 g BID): 13 days
- Cmin ([3]; 1-g/day (0.33 g TID), Day 7, mean, N = 8): 583 ng/mL
- CLpo, 24 ([3]; 1-g/day (0.33 g TID), daily dose divided by mean AUC(0-tau, 24)): 24.2 [c] L/h
- Cavg, 24 h [3, 8]: 1730 ng/mL
- Fluct24 h [3, 8]: 189%
- TimeHgh(0-24) (time above the pharmacologically relevant concentration of 0.5 μg/mL) ([3]; 1-g/day (0.33 g TID), median, N = 8): 23.80 h
- TimeHgh(0-24) (time above the pharmacologically relevant concentration of 0.5 μg/mL) ([3]; 1-g/day (0.5 g BID), 2 times the 0-12 hour morning dose value, N = 5): 19.68 [e] h
- Cmin ([3]; 1-g/day (0.5 g BID), Day 14, mean, N = 5): 308 ng/mL
- CLpo, 24 ([3]; 1-g/day (0.5 g BID), morning dose data, Day 14, N = 5): 57.5 L/h
- Cavg, 24 h [3, 9]: 1040 ng/mL
- Fluct24 h [3, 9]: 145%
- Estimated daily AUC higher with TID than BID ([3]; 1-g/day: 0.33 g TID versus 0.5 g BID): approximately 66%
- TimeHgh(0-24) (time above the pharmacologically relevant concentration of 0.5 μg/mL) ([3]; 1.5-g/day (0.75 g BID), 2 times the 0-12 hour morning dose value, N = 6): 21.84 [e] h
- Cmin ([3]; 1.5-g/day (0.75 g BID), Day 14, mean, N = 6): 443 ng/mL
- CLpo, 24 ([3]; 1.5-g/day (0.75 g BID), morning dose data, Day 14, N = 6): 53.5 L/h
- Cavg, 24 h [3, 10]: 1380 ng/mL
- Fluct24 h [3, 10]: 147%
- Cmin ([3]; 2-g/day (0.67 g TID), Day 7, mean, N = 7): 1220 ng/mL
- CLpo, 24 ([3]; 2-g/day (0.67 g TID), daily dose divided by mean AUC(0-tau, 24)): 18.5 [c] L/h
- Cavg, 24 h [3, 11]: 4480 ng/mL
- Fluct24 h [3, 11]: 177%
- TimeHgh(0-24) (time above the pharmacologically relevant concentration of 0.5 μg/mL) ([3]; 2-g/day (0.67 g TID), median, N = 7): 23.87 h
- Accumulation of Cmax ([3]; BID administration): did not accumulate
- Cmax ([3]; 0.33 g, 1-g/day (0.33 g TID), Day 7, N = 8, read-out: Cmax last dose): 2400 ng/mL
- Cmax ([3]; 0.33 g, 1-g/day (0.33 g TID), highest Cmax of the 3 serial TID profiles, Day 6 lunch, N = 8, read-out: Cmax): 3530 ng/mL
- Cmax ([3]; 0.5 g, 1-g/day (0.5 g BID), Day 14, N = 5, read-out: Cmax last dose): 1890 ng/mL
- Cmax ([3]; 0.5 g, 1-g/day (0.5 g BID), Day 14 morning dose, N = 5, read-out: Cmax): 1890 ng/mL
- Cmax ([3]; 0.67 g, 2-g/day (0.67 g TID), Day 7, N = 7, read-out: Cmax last dose): 4280 ng/mL
- Cmax ([3]; 0.67 g, 2-g/day (0.67 g TID), highest Cmax of the 3 serial TID profiles, Day 6 dinner, N = 7, read-out: Cmax): 9000 ng/mL
- AUC ([3]; 0.75 g, 1.5-g/day (0.75 g BID), 2 times the 0-12 hour morning dose value, N = 6): 33.2 µg·h/mL
- Cmax ([3]; 0.75 g, 1.5-g/day (0.75 g BID), Day 14, N = 6, read-out: Cmax last dose): 2540 ng/mL
- Cmax ([3]; 0.75 g, 1.5-g/day (0.75 g BID), Day 14 morning dose, N = 6, read-out: Cmax): 2540 ng/mL
- AUC ([3]; 1 g/day, 1-g/day (0.33 g TID), mean, N = 8): 41.4 µg·h/mL
- AUC ([3]; 1 g/day, 1-g/day (0.5 g BID), 2 times the 0-12 hour morning dose value, N = 5): 25 µg·h/mL
- AUC ([3]; 2 g/day, 2-g/day (0.67 g TID), mean, N = 7): 108 µg·h/mL
- Maximum concentrations higher with TID than BID ([3]; following the final morning dose, similar doses): approximately 27%
- Dose proportionality of exposure following multiple-dose administration ([3]; within TID (2-fold) or BID (1.5-fold) dose range): approximately proportional increases
